This note sets out measurements from patent US9790470B2, “In vitro pancreatic differentiation of pluripotent mammalian cells” (Cambridge Enterprise Limited, priority 2012, dated 2017).

One data set relates to DE cells. The data set is described as follows: Ventral foregut / hepatic specification of DE cells, Q-PCR of hepatic markers (FIGS. 7, 8). Type of data set: cell-based, human. The text has this:
(§1) Methods for RT-QPCR were described in Touboul T et al. (2010). Hepatology 51: 1754-1765. All data are presented as average of 3 independent biological triplicates and error bars indicate standard deviation.
During the screening of the culture conditions described above, we noted that DE cells grown in the presence of Activin acquired the appearance of foetal hepatocytes with large darkened cytoplasmic space and canaliculi-like structures. […] Alternatively, unknown signaling pathways could activate the same program of differentiation.

Data set [1] deals with DE cells generated from hESCs. The data set is described as follows: Pancreatic differentiation of hESC-derived definitive endoderm cells, QPCR of marker expression (FIG. 2). The format is cell-based. The following applies: for expression of pancreatic (progenitor) markers: hESC derived DE cells grown 3 days; for expression of gut (CDX2) and liver markers (AFP): hESC derived DE cells. The method, then: QPCR analyses showing the expression of PDX1/HLXB9/HNF6/CDX2/AFP/SOX9/PTF1A in DE cells grown for 3 days in the presence of diverse combination of Retinoic Acid (RA), SB431542 (SB) or Activin 10 ng/ml (Act), FGF10 50 ng/ml (FGF) or SU5402 10 μM (SU), and Noggin 100 ng/ml (Nog) or BMP4 10 ng/ml.
hESCs (H9 from WiCell) and hIPSCs (BBHX8, A1ATD-1, JRO1D) (Rashid S, et al. (2010) J Clin Invest 120: 3127-3136) were grown in defined culture (Brons et al (2007) Nature 448: 191-195). Cells were passaged weekly using collagenase IV and maintained in chemically defined medium (CDM) supplemented with Activin A (10 ng/ml) and FGF2 (12 ng/ml) as described previously ((Brons et al (2007)). Differentiation was carried out as described in FIG. 1. Daily media changes were made during the entire differentiation protocol. After the DE stage (stage 1), cells were cultured in Advanced DMEM (Invitrogen) supplemented with SB-431542 (10 μM; Tocris), FGF10 (50 ng/ml; AutogenBioclear), all-trans retinoic acid (RA, 2 μM; Sigma) and Noggin (50 ng/ml; R&D Systems) for 3 days. For stage 3, the cells were cultured in Advanced DMEM+human FGF10 (50 ng/ml; AutogenBioclear), all-trans retinoic acid (RA, 2 μM; Sigma), KAAD-cyclopamine (0.25 μM; Toronto Research Chemicals) and Noggin (50 ng/ml; R&D Systems) for 3 days. For Stage 4, the cells were cultured in human KGF (FGF7) or FGF10 (50 ng/ml; R&D Systems) for 3 days. For maturation of pancreatic progenitors, cells were grown in Advanced DMEM+1% vol/vol B27 and DAPT ([…]) for 3 days and for 3 additional days in Advanced DMEM+1% vol/vol B27. Alternatively, for Stage 4, the cells were cultured in human KGF (FGF7) or FGF10 (50 ng/ml; R&D Systems) and all-trans retinoic acid (RA, 2 μM; Sigma) for 3 days. Alternatively for maturation of pancreatic progenitors, cells were grown in Advanced DMEM+1% vol/vol B27, all-trans retinoic acid (RA, 2 μM; Sigma) and DAPT ([…]) for 3 days and for 3 additional days in Advanced DMEM+1% vol/vol B27 and all-trans retinoic acid (RA, 2 μM; Sigma).
as §1
We recently established a defined culture system to differentiate hESCs and hIPSCs into near homogenous populations of Definitive Endoderm (DE) cells (Teo A K et al. (2011) Genes Dev 25: 238-250). Importantly, this culture system relies on a chemically defined medium (CDM) devoid of animal products, including BSA, serum, complex extra cellular matrix such as Matrigel™, or feeders cells; thereby avoiding the presence of unknown factors which could interfere with experimental outcomes. To further extend this protocol, we screened a broad number of combinations of growth factors and inhibitors of signalling pathways to identify defined culture conditions driving differentiation of DE cells into pancreatic progenitors. […] We then sought to validate and optimise the role of each of these additives.

For `NC(=O)c1ccc(-c2nc(-c3ccc4c(c3)OCO4)c(-c3ccccn3)[nH]2)cc1` [SB431542, 4-(5-Benzol[1,3]dioxol-5-yl-4-pyridin-2-yl-1H-imidazol-2-yl)-benzamide hydrate], the “expression of ventral foregut / liver bud / hepatic markers” value in the data set with DE cells (FIGS. 7 and 8, hydrate) is “decreases the expression of hepatic markers”; with DE cells (FIGS. 7 and 8, listed as SB, hydrate), “decreased the expression of HNF4α, SOX17, HEX and TBX3”. Further, the “expression of pancreatic (progenitor) markers” value (shortened to “expression of pancreatic”) in data set [1] (QPCR, FIG. 2) is given as “had the opposite effect”.

As to `Cc1c[nH]c(/C=C2\C(=O)Nc3ccccc32)c1CCC(=O)O` [SU5402], the “expression of ventral foregut / liver bud / hepatic markers” value with DE cells (FIGS. 7 and 8) is “decreases the expression of hepatic markers”. Moreover, in data set [1] (FGF inhibition during pancreatic differentiation), the cell death entry is given as “significant cell death”. The “expression of PTF1A” value in data set [1] (absence of FGF signalling, QPCR, FIG. 2) is “strongly reduced”. In addition, in data set [1] (QPCR, FIG. 2), the “expression of pancreatic” value is “did not affect the expression of pancreatic progenitor markers”; the “expression of gut (CDX2) and liver markers (AFP)” value is “augmented”.

In the case of `CC1=C(/C=C/C(C)=C/C=C/C(C)=C/C(=O)O)C(C)(C)CCC1` [RA, (2E,4E,6E,8E)-3,7-dimethyl-9-(2,6,6-trimethylcyclohexen-1-yl)nona-2,4,6,8-tetraenoic acid], the “expression of pancreatic” value in data set [1] (QPCR, FIG. 2) is given as “necessary for the induction of pancreatic specification”.

B1: Noggin: BMP inhibitor (BMP antagonist protein) (protein, UniProt Q13253 28-232, looked up)
Noggin: QHYLHIRPAPSDNLPLVDLIEHPDPIFDPKEKDLNETLLRSLLGGHYDPGFMATSPPEDRPGGGGGAAGGAEDLAELDQLLRQRPSGAMPSEIKGLEFSEGLAQGKKQRLSKKLRRKLQMWLWSQTFCPVLYAWNDLGSRFWPRYVKVGSCFSKRSCSVPEGMVCKPSKSVHLTVLRWRCQRRGGQRCGWIPIQYPIISECKCSC
For B1, the HNF4 expression entry with DE cells (FIG. 8) was “moderate decrease”. Further, the “expression of ventral foregut / liver bud / hepatic markers” value with DE cells (FIGS. 7 and 8) was “decreases the expression of hepatic markers”.

B2: BMP4: Bone Morphogenic Protein 4, NCBI GeneID: 652 (protein, UniProt P12644 293-408, looked up)
Bone morphogenetic protein 4: SPKHHSQRARKKNKNCRRHSLYVDFSDVGWNDWIVAPPGYQAFYCHGDCPFPLADHLNSTNHAIVQTLVNSVNSSIPKACCVPTELSAISMLYLDEYDKVVLKNYQEMVVEGCGCR
Take B2: in data set [1] (QPCR, FIG. 2), the “expression of pancreatic” value is “significant decrease in the expression of pancreatic progenitor markers”; the “expression of gut (CDX2) and liver markers (AFP)” value is “inducing gut (CDX2) and liver markers (AFP)”.

B3: Activin: dimeric polypeptide which stimulates the Activin/Nodal pathway (protein, UniProt P08476 311-426, looked up)
Inhibin beta A chain: GLECDGKVNICCKKQFFVSFKDIGWNDWIIAPSGYHANYCEGECPSHIAGTSGSSLSFHSTVINHYRMRGHSPFANLKSCCVPTKLRPMSMLYYDDGQNIIKKDIQNMIVEECGCS
modifications: Inhibin beta A chain
With B3, in the data set with DE cells (FIGS. 7 and 8), the “expression of ventral foregut / liver bud / hepatic markers” value was “expressed genes marking ventral foregut”. Moreover, the “expression of pancreatic” value in data set [1] (QPCR, FIG. 2) is recorded as “abolished the expression of pancreatic markers”.
